Results reported in paper PMC5225157 (Biochemistry, 2016).
* marks the point of attachment. Dansyl = CN(C)c1cccc2c(S(=O)(=O)*)cccc12

What was measured:
[1] = target: T1, human CP4H1 (Homo sapiens, UniProt P13674); experiment: UPLC assay of model peptides and isosteres as substrates; type: biochemical
[2] = target: T1, human CP4H1; experiment: Inhibition of human CP4H1 activity by alkene isosteres; type: biochemical; details: for relative inhibitory potency, cis versus trans Cbz isosteres: Cbz isostere 1.00 mM, CbzGPPGOEt 1.00 mM as substrate, pH 7.8, three independent experiments; for relative inhibitory potency, cis versus trans Cbz isosteres / inhibition of catalysis by human CP4H: α-ketoglutarate 1.00 mM; for inhibition of catalysis by human CP4H: dansyl isostere 100 µM, dansylGPPGOEt 0.50 mM, pH 7.8, 30 °C, mean (± SD) of three independent experiments
[3] = tested on: C. reinhardtii P4H-1 (CrP4H-1); experiment: UPLC assay of dansyl peptides as substrates; type: biochemical, Chlamydomonas reinhardtii; details: for hydroxylation of dansyl isosteres by CrP4H-1: UPLC, data not shown
[4] = tested on: C. reinhardtii P4H-1 (CrP4H-1); details: isostere 100 µM, dansylGPPGOEt 0.50 mM, α-ketoglutarate 1.00 mM, NHis6-CrP4H-1 1.2 µM, 30 °C, 1 h, UPLC; three independent experiments
[5] = tested on: CP4H; details: a CP4H; cited from earlier work

T1 sequence (P13674 18-534): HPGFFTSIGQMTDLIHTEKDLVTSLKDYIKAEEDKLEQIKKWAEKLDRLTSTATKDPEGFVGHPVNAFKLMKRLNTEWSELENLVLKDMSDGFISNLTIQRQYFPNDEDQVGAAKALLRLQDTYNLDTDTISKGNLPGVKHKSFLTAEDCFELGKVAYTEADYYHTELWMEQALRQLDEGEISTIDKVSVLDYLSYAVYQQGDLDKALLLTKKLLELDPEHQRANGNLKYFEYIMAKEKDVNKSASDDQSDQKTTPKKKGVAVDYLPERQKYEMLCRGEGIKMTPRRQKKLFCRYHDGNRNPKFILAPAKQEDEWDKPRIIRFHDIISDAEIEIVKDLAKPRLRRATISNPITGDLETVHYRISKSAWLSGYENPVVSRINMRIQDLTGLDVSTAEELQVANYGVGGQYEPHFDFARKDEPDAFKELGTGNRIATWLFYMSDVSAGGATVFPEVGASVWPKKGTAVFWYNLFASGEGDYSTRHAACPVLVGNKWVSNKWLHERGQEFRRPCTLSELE
T1 sequence (P07237 18-508 partner): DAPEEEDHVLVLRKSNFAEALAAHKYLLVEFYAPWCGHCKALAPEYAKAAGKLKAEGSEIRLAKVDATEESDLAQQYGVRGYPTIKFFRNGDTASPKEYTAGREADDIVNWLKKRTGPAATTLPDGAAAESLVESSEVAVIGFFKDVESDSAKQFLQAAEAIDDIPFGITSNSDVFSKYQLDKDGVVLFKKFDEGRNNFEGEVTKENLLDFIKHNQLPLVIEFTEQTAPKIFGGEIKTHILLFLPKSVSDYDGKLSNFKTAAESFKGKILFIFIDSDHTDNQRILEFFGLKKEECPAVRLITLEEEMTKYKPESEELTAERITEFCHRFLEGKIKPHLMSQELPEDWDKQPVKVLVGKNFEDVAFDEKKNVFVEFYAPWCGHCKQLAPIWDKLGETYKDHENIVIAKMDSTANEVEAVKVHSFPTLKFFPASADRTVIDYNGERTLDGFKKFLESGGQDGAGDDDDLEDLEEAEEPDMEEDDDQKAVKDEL

dansylGlyProProGlyOEt (Dansyl-GPPG-OEt; SMILES CCOC(=O)CNC(=O)[C@@H]1CCCN1C(=O)[C@@H]1CCCN1C(=O)CNS(=O)(=O)c1cccc2c(N(C)C)cccc12) [Compound 1]
Ki ([1]; read-out: Ki (dissociation constant for substrate binding in an inhibitory manner), substrate-inhibition fit (R^2 = 0.98), dansylGPPGOEt 58–1860 µM, α-ketoglutarate 1.00 mM, CP4H1 100 nM, pH 7.8, 30 °C, 15 min, UPLC A289, triplicate): 300 ± 100 µM

CbzGPcisPGOEt [Compound 6]
relative inhibitory potency, cis versus trans Cbz isosteres [2]: the cis isostere inhibits with greater potency than does the trans isostere

CCOC(=O)CNC(=O)[C@@H]1CCC/C1=C\[C@@H]1CCCN1C(=O)CNS(=O)(=O)c1cccc2c(N(C)C)cccc12 [Compound 3, dansylGPtransPGOEt]
hydroxylation of dansyl isosteres by CrP4H-1 [3]: did not observe hydroxylation
inhibition of CrP4H-1 [4]: served as inhibitors of CrP4H-1
IC50 [2]: 410 ± 30 µM
inhibition of catalysis by human CP4H [2]: inhibitors of catalysis by human CP4H

CCOC(=O)CNC(=O)[C@@H]1CCC/C1=C/[C@@H]1CCCN1C(=O)CNS(=O)(=O)c1cccc2c(N(C)C)cccc12 [Compound 5, dansylGPcisPGOEt]
hydroxylation of dansyl isosteres by CrP4H-1 [3]: did not observe hydroxylation
inhibition of CrP4H-1 [4]: served as inhibitors of CrP4H-1
IC50 [2]: 75 ± 6 µM
Ki [2]: 56 ± 13 µM
inhibition of catalysis by human CP4H [2]: inhibitors of catalysis by human CP4H

(ProProGly)10
mode of substrate inhibition versus α-ketoglutarate [5]: competitive with the cosubstrate α-ketoglutarate
substrate inhibition during turnover of longer collagen mimetic peptide [5]: Substrate inhibition had been observed

dansylGlyProProGlyOEt [Compound 1]
kinetic pattern of turnover (CrP4H-1) ([3]; dansylGPPGOEt 212–2120 µM, α-ketoglutarate 1.00 mM): substrate inhibition phenomenon similar to that observed for human CP4H1
kinetic pattern of turnover ([1]; dansylGPPGOEt 58–1860 µM, α-ketoglutarate 1.00 mM, pH 7.8, 30 °C): substrate inhibition
substrate inhibition at saturating α-ketoglutarate ([1]; saturating concentrations of α-ketoglutarate, human CP4H1): observed even at saturating concentrations of α-ketoglutarate

CbzGPtransPGOEt [Compound 4]
relative inhibitory potency, cis versus trans Cbz isosteres [2]: the cis isostere inhibits with greater potency than does the trans isostere
